Measured values from patent US9101616B2, “Aryl substituted carboxamide derivatives as calcium or sodium channel blockers” (RaQualia Pharma Inc., priority 2009, dated 2015).

molecular target: T1, human T-type channel alpha-1H (CaV 3.2) (Homo sapiens, UniProt O95180); experiment: Ca2+ Influx Assay (cell-based fluorescent, FDSS); conditions: HEK 293 cells expressing human CaV 3.2
T1 construct: expressed in transfected cells; host or cells: HEK 293
How it was run: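 HEK293 cells stably expressing human CaV3.2, loaded with Fluo-4-AM 1 h at 37 °C. Compound added 4.5 min before potassium ionophore, then high-K+ depolarization with fluorescence monitored on FDSS. IC50 from 7-point dose-response, duplicate wells.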

T1 sequence (O95180 whole entry): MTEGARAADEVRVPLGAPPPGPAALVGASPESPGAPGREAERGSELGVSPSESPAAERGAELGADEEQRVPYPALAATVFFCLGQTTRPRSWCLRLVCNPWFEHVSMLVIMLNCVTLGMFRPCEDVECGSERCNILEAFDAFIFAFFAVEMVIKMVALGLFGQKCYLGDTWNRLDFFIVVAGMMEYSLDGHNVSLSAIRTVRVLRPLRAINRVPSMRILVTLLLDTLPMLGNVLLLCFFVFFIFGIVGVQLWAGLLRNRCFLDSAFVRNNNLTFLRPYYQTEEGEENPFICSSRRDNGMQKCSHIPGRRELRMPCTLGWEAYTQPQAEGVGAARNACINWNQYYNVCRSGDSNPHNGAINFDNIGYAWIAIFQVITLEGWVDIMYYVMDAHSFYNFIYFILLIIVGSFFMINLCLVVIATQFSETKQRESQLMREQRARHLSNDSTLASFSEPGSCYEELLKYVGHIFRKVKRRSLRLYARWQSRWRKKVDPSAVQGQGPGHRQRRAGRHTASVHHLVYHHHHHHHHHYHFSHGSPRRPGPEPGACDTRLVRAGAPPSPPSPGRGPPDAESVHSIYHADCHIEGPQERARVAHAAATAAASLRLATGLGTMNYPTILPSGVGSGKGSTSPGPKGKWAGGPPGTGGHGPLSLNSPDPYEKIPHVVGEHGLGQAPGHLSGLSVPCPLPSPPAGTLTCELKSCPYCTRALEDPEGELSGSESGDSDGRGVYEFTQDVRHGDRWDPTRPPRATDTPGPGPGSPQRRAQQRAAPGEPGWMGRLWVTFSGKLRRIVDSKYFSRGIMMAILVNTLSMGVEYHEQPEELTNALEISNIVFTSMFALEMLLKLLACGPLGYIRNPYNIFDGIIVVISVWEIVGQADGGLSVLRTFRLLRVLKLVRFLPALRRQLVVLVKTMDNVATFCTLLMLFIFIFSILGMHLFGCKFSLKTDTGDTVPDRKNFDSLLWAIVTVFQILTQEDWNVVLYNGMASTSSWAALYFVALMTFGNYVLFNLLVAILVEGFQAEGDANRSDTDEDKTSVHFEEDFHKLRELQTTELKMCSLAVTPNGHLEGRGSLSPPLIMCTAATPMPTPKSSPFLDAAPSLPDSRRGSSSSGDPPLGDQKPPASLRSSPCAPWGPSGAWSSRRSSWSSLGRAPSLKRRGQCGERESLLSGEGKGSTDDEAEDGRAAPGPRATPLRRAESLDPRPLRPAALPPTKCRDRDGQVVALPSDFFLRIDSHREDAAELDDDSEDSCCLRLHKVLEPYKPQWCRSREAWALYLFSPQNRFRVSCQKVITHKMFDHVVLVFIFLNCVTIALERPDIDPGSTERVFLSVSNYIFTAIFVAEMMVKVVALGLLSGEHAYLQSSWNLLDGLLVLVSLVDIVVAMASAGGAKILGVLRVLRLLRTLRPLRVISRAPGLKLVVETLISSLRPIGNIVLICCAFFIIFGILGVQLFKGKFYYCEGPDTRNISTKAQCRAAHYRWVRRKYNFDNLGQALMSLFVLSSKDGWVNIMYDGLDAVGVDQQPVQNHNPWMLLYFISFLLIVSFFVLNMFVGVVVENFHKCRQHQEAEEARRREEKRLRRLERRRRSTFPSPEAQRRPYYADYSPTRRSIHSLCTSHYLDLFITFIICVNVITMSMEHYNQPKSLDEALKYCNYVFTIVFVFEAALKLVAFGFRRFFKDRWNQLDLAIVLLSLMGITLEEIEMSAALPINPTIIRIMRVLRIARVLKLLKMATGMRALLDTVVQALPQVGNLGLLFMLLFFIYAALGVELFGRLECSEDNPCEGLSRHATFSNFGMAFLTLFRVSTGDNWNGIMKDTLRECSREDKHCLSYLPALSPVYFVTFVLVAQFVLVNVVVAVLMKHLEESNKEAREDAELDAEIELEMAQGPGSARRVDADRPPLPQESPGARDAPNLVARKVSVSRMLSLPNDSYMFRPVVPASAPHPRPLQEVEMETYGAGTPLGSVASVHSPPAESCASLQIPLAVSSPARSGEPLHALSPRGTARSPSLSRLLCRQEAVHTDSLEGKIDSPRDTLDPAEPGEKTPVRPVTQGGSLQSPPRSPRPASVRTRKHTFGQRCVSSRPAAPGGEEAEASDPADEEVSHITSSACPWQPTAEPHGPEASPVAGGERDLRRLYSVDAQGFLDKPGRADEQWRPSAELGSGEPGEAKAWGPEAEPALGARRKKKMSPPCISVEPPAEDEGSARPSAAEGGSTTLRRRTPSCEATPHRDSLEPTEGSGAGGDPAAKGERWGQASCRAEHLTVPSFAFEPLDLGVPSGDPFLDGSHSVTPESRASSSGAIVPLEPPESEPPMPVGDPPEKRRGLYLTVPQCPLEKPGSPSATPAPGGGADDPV

| SMILES | IC50 [µM] |
| --- | --- |
| C[C@@H](NC(=O)[C@H]1C[C@@H]1c1cccc(OCc2ccccn2)c1)c1ccc(OCC(F)(F)F)cn1 (relative stereo) [Example 306, (1S*,2S*)-2-(3-(pyridin-2-ylmethoxy)phenyl)-N-((R)-1-(5-(2,2,2-trifluoroethoxy)pyridin-2-yl)ethyl)cyclopropanecarboxamide] | ≤ 0.3 |
| C[C@@H](NC(=O)[C@H]1C[C@@H]1COc1cccc(F)c1)c1ccc(OCC(F)(F)F)cn1 (relative stereo) [Example 294, (1S*,2S*)-2-((3-fluorophenoxy)methyl)-N-((R)-1-(5-(2,2,2-trifluoroethoxy)pyridin-2-yl)ethyl)cyclopropanecarboxamide] | ≤ 0.3 |
| COc1ccc([C@H]2C[C@@H]2C(=O)N[C@H](C)c2ccc(OCC3CC3)cn2)cc1C (relative stereo) [Example 307, (1S*,2S*)-N-((R)-1-(5-(cyclopropyl-methoxy)pyridin-2-yl)ethyl)-2-(4-methoxy-3-methylphenyl) cyclopropanecarboxamide] | ≤ 0.3 |
| C[C@@H](NC(=O)C1CC1c1cnc2ccccc2c1)c1ccc(OCC(F)(F)F)nc1 (stereo in doubt) [Example 211, trans-2-(quinolin-3-yl)-N-((R)-1-(6-(2,2,2-trifluoroethoxy)pyridin-3-yl)ethyl)cyclopropanecarboxamide] | ≤ 0.3 |
| C[C@@H](NC(=O)[C@@H]1C[C@H]1c1ccc2ccccc2n1)c1ccc(OCC(F)(F)F)cn1 (relative stereo) [Example 325, (1R*,2R*)-2-(quinolin-2-yl)-N-((R)-1-(5-(2,2,2-trifluoroethoxy)pyridin-2-yl)ethyl)cyclopropanecarboxamide] | ≤ 0.3 |
| C[C@@H](NC(=O)[C@H]1C[C@@H]1c1ccc(OCc2ccccc2)cc1)c1ccc(OCC(F)(F)F)cn1 (relative stereo) [Example 237, (1S*,2S*)-2-(4-(benzyloxy)phenyl)-N-((R)-1-(5-(2,2,2-trifluoroethoxy)pyridin-2-yl)ethyl)cyclopropanecarboxamide] | ≤ 0.3 |
| C[C@@H](NC(=O)C1CC1c1cc2ccccc2cn1)c1ccc(OCC(F)(F)F)cn1 (stereo in doubt) [Example 172, trans-2-(isoquinolin-3-yl)-N-((R)-1-(5-(2,2,2-trifluoroethoxy)pyridin-2-yl)ethyl)cyclopropanecarboxamide] | ≤ 0.3 |
| C[C@@H](NC(=O)CCc1c[nH]c2ccccc12)c1ccc(OCC(F)(F)F)cn1 [Example 33, (R)-3-(1H-indol-3-yl)-N-(1-(5-(2,2,2-trifluoroethoxy)pyridin-2-yl)ethyl)propanamide] | ≤ 0.3 |
| COc1ccc(C2CC2C(=O)N[C@H](C)c2ccc(OCC(F)(F)F)cn2)cc1C (stereo in doubt) [Example 202, trans-2-(4-methoxy-3-methylphenyl)-N-((R)-1-(5-(2,2,2-trifluoroethoxy)pyridin-2-yl)ethyl)cyclopropanecarboxamide] | ≤ 0.3 |
| C[C@@H](NC(=O)[C@H]1C[C@@H]1c1nc2ccccc2[nH]1)c1cnc(OCC(F)(F)F)cn1 (relative stereo) [Example 286, (1S*,2S*)-2-(1H-benzo[d]imidazol-2-yl)-N-((R)-1-(5-(2,2,2-trifluoroethoxy)pyrazin-2-yl)ethyl)cyclopropanecarboxamide] | ≤ 0.3 |
| C[C@@H](NC(=O)[C@H]1C[C@@H]1c1ccc2cnn(C)c2c1)c1ccc(OCC(F)(F)F)cn1 (relative stereo) [Example 227, (1S*,2S*)-2-(1-methyl-1H-indazol-6-yl)-N-((R)-1-(5-(2,2,2-trifluoroethoxy)pyridin-2-yl)ethyl)cyclopropanecarboxamide] | ≤ 0.3 |
| COc1ccc([C@H]2C[C@@H]2C(=O)N[C@H](C)c2cnc(OCC(F)(F)F)cn2)c(F)c1 (relative stereo) [Example 270, (1S*,2S*)-2-(2-fluoro-4-methoxyphenyl)-N-((R)-1-(5-(2,2,2-trifluoroethoxy)pyrazin-2-yl)ethyl)cyclopropanecarboxamide] | ≤ 0.3 |
| C[C@@H](NC(=O)C1CC1c1ccc2ccn(CC3(C)COC3)c2c1)c1ccc(OCC(F)(F)F)nc1 (stereo in doubt) [Example 213, trans-2-(1-((3-methyloxetan-3-yl)methyl)-1H-indol-6-yl)-N-((R)-1-(6-(2,2,2-trifluoro-ethoxy)pyridin-3-yl)ethyl)cyclopropanecarboxamide] | ≤ 0.3 |
| C[C@@H](NC(=O)C1CC1c1cc2ccccc2[nH]1)c1ccc(OCC(F)(F)F)cn1 (stereo in doubt) [Example 124, trans-2-(1H-indol-2-yl)-N-((R)-1-(5-(2,2,2-trifluoroethoxy)pyridin-2-yl)ethyl)cyclopropanecarboxamide] | ≤ 0.3 |
| COc1ccc([C@H]2C[C@@H]2C(=O)N[C@H](C)c2ccc(OCC(F)(F)F)cn2)c(F)c1 (relative stereo) [Example 248, (1S*,2S*)-2-(2-fluoro-4-methoxyphenyl)-N-((R)-1-(5-(2,2,2-trifluoroethoxy)pyridin-2-yl)ethyl)cyclopropanecarboxamide] | ≤ 0.3 |
| C[C@@H](NC(=O)[C@H]1C[C@@H]1c1cc2ccccc2[nH]1)c1cnc(OCC(F)(F)F)cn1 (relative stereo) [Example 225, (1S*,2S*)-2-(1H-indol-2-yl)-N-((R)-1-(5-(2,2,2-trifluoroethoxy)pyrazin-2-yl)ethyl)cyclopropanecarboxamide] | ≤ 0.3 |
| C[C@@H](NC(=O)C1CC1c1c[nH]c2ccc(C#N)cc12)c1ccc(OCC(F)(F)F)cn1 (stereo in doubt) [Example 111, trans-2-(5-cyano-1H-indol-3-yl)-N-((R)-1-(5-(2,2,2-trifluoroethoxy)pyridin-2-yl)ethyl)cyclopropanecarboxamide] | ≤ 0.3 |
| C[C@@H](NC(=O)[C@@H]1C[C@H]1c1cccc2[nH]ccc12)c1ccc(OCC(F)(F)F)cn1 (relative stereo) [Example 277, (1R*,2R*)-2-(1H-indol-4-yl)-N-((R)-1-(5-(2,2,2-trifluoroethoxy)pyridin-2-yl)ethyl)cyclopropanecarboxamide] | ≤ 0.3 |
| C[C@@H](NC(=O)C1CC1c1cn(C)c2ccccc12)c1ccc(OCC(F)(F)F)cn1 (stereo in doubt) [Example 106, trans-2-(1-methyl-1H-indol-3-yl)-N-((R)-1-(5-(2,2,2-trifluoroethoxy)pyridin-2-yl)ethyl)cyclopropanecarboxamide] | ≤ 0.3 |
| C[C@@H](NC(=O)C1CC1c1c[nH]c2cc(F)ccc12)c1ccc(OCC(F)(F)F)cn1 (stereo in doubt) [Example 168, trans-2-(6-fluoro-1H-indol-3-yl)-N-((R)-1-(5-(2,2,2-trifluoroethoxy)pyridin-2-yl)ethyl)cyclopropanecarboxamide] | ≤ 0.3 |
| C[C@@H](NC(=O)[C@H]1C[C@@H]1COc1ccccc1)c1ccc(OCC(F)(F)F)nc1 (relative stereo) [Example 320, (1S*,2S*)-2-(phenoxymethyl)-N-((R)-1-(6-(2,2,2-trifluoroethoxy)pyridin-3-yl)ethyl)cyclopropanecarboxamide] | ≤ 0.3 |
| C[C@@H](NC(=O)C1CC1c1cc(F)cc(F)c1)c1cnc(OCC(F)(F)F)cn1 (stereo in doubt) [Example 194, trans-2-(3,5-difluorophenyl)-N-((R)-1-(5-(2,2,2-trifluoroethoxy)pyrazin-2-yl)ethyl)cyclopropanecarboxamide] | ≤ 0.3 |
| C[C@@H](NC(=O)[C@H]1C[C@@H]1c1ccc(F)cc1Cl)c1ccc(OCC(F)(F)F)cn1 (relative stereo) [Example 246, (1S*,2S*)-2-(2-chloro-4-fluorophenyl)-N-((R)-1-(5-(2,2,2-trifluoroethoxy)pyridin-2-yl)ethyl)cyclopropanecarboxamide] | ≤ 0.3 |
| C[C@@H](NC(=O)[C@@H]1C[C@H]1c1cccc2cc[nH]c12)c1ccc(OCC(F)(F)F)cn1 (relative stereo) [Example 276, (1R*,2R*)-2-(1H-indol-7-yl)-N-((R)-1-(5-(2,2,2-trifluoroethoxy)pyridin-2-yl)ethyl)cyclopropanecarboxamide] | ≤ 0.3 |
| COc1ccc([C@H]2C[C@@H]2C(=O)N[C@H](C)c2cnc(OCC(F)(F)F)cn2)cc1C (relative stereo) [Example 309, (1S*,2S*)-2-(4-methoxy-3-methylphenyl)-N-((R)-1-(5-(2,2,2-trifluomethoxy)pyrazin-2-yl)ethyl)cyclopropanecarboxamide] | ≤ 0.3 |
| C[C@@H](NC(=O)C1CC1c1ccc2cnn(C)c2c1)c1cnc(OCC(F)(F)F)cn1 (stereo partly drawn) [Example 229, trans-2-(1-methyl-1H-indazol-6-yl)-N-((R)-1-(5-(2,2,2-trifluoroethoxy)pyrazin-2-yl)ethyl)cyclopropanecarboxemide] | ≤ 0.3 |
| C[C@H](NC(=O)[C@@H]1C[C@H]1c1cccc(OCc2ccccc2)c1)c1ccc(OCC(F)(F)F)cn1 (stereo in doubt) [Example 346, (1R*,2R*)-2-(3-(benzyloxy)phenyl)-N-((S)-1-(5-(2,2,2-trifluoroethoxy)pyridin-2-yl)ethyl)cyclopropanecarboxamide] | ≤ 0.3 |

system: chronic pain; experiment: not given; conditions: in vivo; cited from earlier work

| SMILES | effect on chronic pain |
| --- | --- |
| CCN(CC)CC(=O)Nc1c(C)cccc1C [lidocaine] | effective to treat chronic pain |

system: rats; experiment: not given; conditions: rat, in vivo; cited from earlier work

| SMILES | effect on mechanical allodynic behavior |
| --- | --- |
| NC1=N[C@H](O)[C@H]2[C@H]3O[C@]4(O)O[C@@H]([C@@H](O)[C@@]2(N1)[C@@H]4O)[C@]3(O)CO [TTX, tetrodotoxin] | significantly reduces mechanical allodynic behavior |
